Experimental data taken from patent publication US11452762B2, “Method of treating rhinitis with C-type natriuretic peptides” (IGISU Co., Ltd., priority 2009, dated 2022).
Entries after “also recorded” stand apart in the source; their conditions may differ.

What was measured:
pollen allergy = settings: after 2 weeks of application, spraying once a day; cited from earlier work
[1] = tested on: patients with rhinitis, allergic rhinitis in particular; experiment: Administration tests of CNP, BNP or ANP nasal solution preparations in rhinitis patients (case studies); type: in vivo, human; settings: for Symptom improvement (severity level before → after application): 50 μg/ml nasal solution, one spray (130 μl, 6.5 μg) in each nostril once or twice a day, each value one patient (Case); for Effect on nasal itching / tickling feeling (in words): 50 μg/ml twice a day; for Time after application until slight improvement in nasal itching: initial application; for Overall effect on rhinitis symptoms (in words): patients with rhinitis, BNP versus ANP
Description: Diagnosis, evaluation of symptoms, and examination of the CNP nasal drop preparations, BNP nasal drop preparations and ANP nasal drop preparation were performed as follows. The subjects are patients in whom conventional external medicines such as steroids are not sufficiently effective, or patients in whom the use of steroids must be avoided due to local side effects such as nasal irritation and dryness. Diagnosis and treatment of these subjects were performed by the present applicant as a medical doctor. Severity evaluation of symptoms of allergic rhinitis was performed, in principle, in accordance with “Guidelines for medical care of nasal allergies, 2009 edition” (edited by the committee for creation of guidelines for medical care of nasal allergies), by classifying into 5 stages as shown below. Here, “mixed type” refers to the cases wherein both of the sneezing attack or rhinorrhea and the nasal occlusion were presented with the same severity. […] In the above table, evaluation scores for sneezing fit, rhinorrhea and nasal occlusion are as described in the table below. […] Administration tests of the nasal solution preparations of the present invention were performed by, in principle, spraying the CNP nasal solution, BNP nasal solution or ANP nasal solution used to fill a nasal spraying device twice a day at awakening time and before bedtime, with one spray in each nostril at each time. […] Prior to the application of CNP preparations, BNP preparations or ANP preparation, the subjects' history was obtained, scratch tests for allergens were performed and diagnosis was made.

[2] = 50 μg/ml, initial or continued application, listed as ANP nasal solution

## C[C@@H]1C[C@H]2[C@@H]3CCC4=CC(=O)C=C[C@]4(C)[C@@]3(Cl)[C@@H](O)C[C@]2(C)[C@@]1(OC(=O)c1ccco1)C(=O)CCl [Mometasone furoate hydrate]
Pollen allergy
  Degree of improvement in nasal occlusion: 30-40%
  Degree of improvement in overall symptoms: 40-50%

## CC[C@H](C)[C@@H]1NC(=O)[C@H](CCCNC(=N)N)NC(=O)[C@H](CC(=O)O)NC(=O)[C@H](CCSC)NC(=O)[C@H](CCCCN)NC(=O)[C@H](CCCNC(=N)N)NC(=O)CNC(=O)[C@H](Cc2ccccc2)NC(=O)[C@@H](NC(=O)CNC(=O)[C@H](CO)NC(=O)CNC(=O)[C@H](CCC(N)=O)NC(=O)[C@@H](NC(=O)[C@H](CCSC)NC(=O)[C@H](CCCCN)NC(=O)[C@@H]2CCCN2C(=O)[C@@H](N)CO)C(C)C)CSSC[C@@H](C(=O)N[C@@H](CCCCN)C(=O)N[C@H](C(=O)N[C@@H](CC(C)C)C(=O)N[C@@H](CCCN=C(N)N)C(=O)N[C@@H](CCCN=C(N)N)C(=O)N[C@@H](Cc2cnc[nH]2)C(=O)O)C(C)C)NC(=O)CNC(=O)[C@H](CC(C)C)NC(=O)CNC(=O)[C@H](CO)NC(=O)[C@H](CO)NC(=O)[C@H](CO)NC(=O)[C@H](CO)NC1=O [BNP nasal solution preparation, human BNP-32]
[1]; 50 μg/ml nasal spray
  Local irritation symptoms / side effects: later. No irritation
[1]; 50 μg/ml nasal spray, listed as BNP nasal solution
  Local irritation symptoms / side effects: local irritation symptoms did not occur; also recorded: no irritation symptoms were observed
[1]; 100 μg/ml nasal spray
  Local irritation symptoms / side effects: it does not exhibit such side effects
[1]; 200 μg/ml nasal spray, listed as BNP nasal solution
  Local irritation symptoms / side effects: no local irritation symptoms or feelings of discomfort

## human ANP-28 [ANP nasal solution preparation]
[1]
  Symptom improvement (severity level before → after application): Severe → severe
  Effect on nasal itching / tickling feeling (in words): improved slightly.
  Overall effect on rhinitis symptoms (in words): no immediate effect was observed
[1]; listed as ANP nasal solution
  Symptom improvement (severity level before → after application): severe before the ANP application to still severe
  Effect on nasal itching / tickling feeling (in words): slightly improved
[1]; 50 μg/ml
  Time after application until slight improvement in nasal itching: At 1 hr later, a slight
[1]; 50 μg/ml, listed as ANP nasal solution
  Time after application until slight improvement in nasal itching: One hour later
[1]; 50 μg/ml, initial or continued application
  Effect on nasal occlusion (in words): sensation was not improved.
[1]; [2]
  Effect on nasal occlusion (in words): not improved; also recorded: no changes
  Effect on rhinorrhea / runny nose (in words): did not stop; also recorded: no changes; also recorded: not improved; also recorded: No improvement
[1]; 50 μg/ml, once or twice a day
  Number of nose blows under application: approximately 20 times a day
[1]; 50 μg/ml, one application, listed as ANP nasal solution
  Persistence of the effects of an application (in words): persistence was short
[1]; 50 μg/ml, subjective, listed as ANP nasal solution
  Time after application until nasal passages opened: 20 min
[1]; listed as ANP preparations
  Overall effect on rhinitis symptoms (in words): no improvements or worsening

## CC[C@H](C)[C@@H]1NC(=O)[C@H](CCCNC(=N)N)NC(=O)[C@H](CC(=O)O)NC(=O)[C@H](CC(C)C)NC(=O)[C@H](CCCCN)NC(=O)[C@H](CC(C)C)NC(=O)CNC(=O)[C@H](Cc2ccccc2)NC(=O)[C@@H](NC(=O)CNC(=O)[C@H](CCCCN)NC(=O)[C@H](CO)NC(=O)[C@H](CC(C)C)NC(=O)CN)CSSC[C@@H](C(=O)O)NC(=O)CNC(=O)[C@H](CC(C)C)NC(=O)CNC(=O)[C@H](CO)NC(=O)[C@H](CCSC)NC(=O)[C@H](CO)NC(=O)CNC1=O [CNP nasal solution preparation, human CNP-22]
[1]; 100 μg/ml nasal spray
  Local irritation symptoms / side effects: side effects such as local irritation symptoms were not observed; also recorded: No local irritation symptoms were observed; also recorded: No local side effects such as irritation, as well as no systemic side effects such as drowsiness were observed; also recorded: without irritation or local side effects; also recorded: without any irritation symptoms
  Permeability of the nasal solution (in words): good and good permeability
